Measured values from the NIST ThermoML archive (doi:10.1021/je8001128).
Numbers after ± are expanded uncertainties.

Legend:
[1] = 298.15 K; 101 kPa; Liquid
[2] = wn = mass fraction of the nth substance listed; conditions: 298.15 K, 101 kPa, Liquid

CCCCn1cc[n+](C)c1.F[B-](F)(F)F [1-butyl-3-methylimidazolium tetrafluoroborate]
mass density [1]: 1211.05 ± 8.6 kg/m3
viscosity [1]: 110.3 ± 6.6 mPa·s

CCCCn1cc[n+](C)c1.F[B-](F)(F)F [1-butyl-3-methylimidazolium tetrafluoroborate] + CC(C)=O
mass density ([2]; w1 = 0.1724): 846.15 ± 0.96 kg/m3
viscosity ([2]; w1 = 0.1724): 0.5 ± 0.1 mPa·s
mass density ([2]; w1 = 0.3033): 894.39 ± 1.2 kg/m3
viscosity ([2]; w1 = 0.3033): 0.7 ± 0.1 mPa·s
mass density ([2]; w1 = 0.495): 970.29 ± 2 kg/m3
viscosity ([2]; w1 = 0.495): 1.5 ± 0.1 mPa·s
mass density ([2]; w1 = 0.6276): 1026.98 ± 3 kg/m3
viscosity ([2]; w1 = 0.6276): 3 ± 0.1 mPa·s
mass density ([2]; w1 = 0.677): 1048.91 ± 3.5 kg/m3
viscosity ([2]; w1 = 0.677): 4 ± 0.1 mPa·s
mass density ([2]; w1 = 0.7197): 1068.29 ± 4 kg/m3
viscosity ([2]; w1 = 0.7197): 5.2 ± 0.2 mPa·s
mass density ([2]; w1 = 0.7603): 1086.16 ± 4.4 kg/m3
viscosity ([2]; w1 = 0.7603): 6.9 ± 0.2 mPa·s
mass density ([2]; w1 = 0.7933): 1102.46 ± 4.9 kg/m3
viscosity ([2]; w1 = 0.7933): 9 ± 0.3 mPa·s
mass density ([2]; w1 = 0.8267): 1118.43 ± 5.4 kg/m3
viscosity ([2]; w1 = 0.8267): 12 ± 0.3 mPa·s
mass density ([2]; w1 = 0.8536): 1131.38 ± 5.8 kg/m3
viscosity ([2]; w1 = 0.8536): 15.1 ± 0.4 mPa·s
mass density ([2]; w1 = 0.9024): 1155.29 ± 6.6 kg/m3
viscosity ([2]; w1 = 0.9024): 25.5 ± 0.7 mPa·s
mass density ([2]; w1 = 0.939): 1174.32 ± 7.2 kg/m3
viscosity ([2]; w1 = 0.939): 40.1 ± 1.2 mPa·s
mass density ([2]; w1 = 0.9707): 1193.01 ± 7.9 kg/m3
viscosity ([2]; w1 = 0.9707): 64.7 ± 2 mPa·s
mass density ([2]; w1 = 1): 1211.05 ± 8.6 kg/m3
viscosity ([2]; w1 = 1): 110.3 ± 6.6 mPa·s

CCCCn1cc[n+](C)c1.F[B-](F)(F)F [1-butyl-3-methylimidazolium tetrafluoroborate] + CCOC=O
mass density ([2]; w1 = 1): 1211.05 ± 8.6 kg/m3
viscosity ([2]; w1 = 1): 110.3 ± 6.6 mPa·s

CCCCn1cc[n+](C)c1.F[B-](F)(F)F [1-butyl-3-methylimidazolium tetrafluoroborate] + COC(C)=O
mass density ([2]; w1 = 1): 1211.05 ± 8.6 kg/m3
viscosity ([2]; w1 = 1): 110.3 ± 6.6 mPa·s

CCCCn1cc[n+](C)c1.F[B-](F)(F)F [1-butyl-3-methylimidazolium tetrafluoroborate] + COC=O
mass density ([2]; w1 = 1): 1211.05 ± 8.6 kg/m3
viscosity ([2]; w1 = 1): 110.3 ± 6.6 mPa·s

CC(C)=O [acetone] + CCCCn1cc[n+](C)c1.F[B-](F)(F)F
mass density ([2]; w2 = 0): 785.36 ± 0.81 kg/m3
viscosity ([2]; w2 = 0): 0.3 ± 0.1 mPa·s

CCOC=O [ethyl methanoate] + CCCCn1cc[n+](C)c1.F[B-](F)(F)F
mass density ([2]; w2 = 0): 928.48 ± 0.52 kg/m3
viscosity ([2]; w2 = 0): 0.4 ± 0.1 mPa·s
mass density ([2]; w2 = 0.1384): 961.2 ± 0.72 kg/m3
viscosity ([2]; w2 = 0.1384): 0.6 ± 0.1 mPa·s
mass density ([2]; w2 = 0.254): 989.2 ± 1 kg/m3
viscosity ([2]; w2 = 0.254): 1 ± 0.1 mPa·s
mass density ([2]; w2 = 0.4306): 1040.81 ± 1.9 kg/m3
viscosity ([2]; w2 = 0.4306): 2 ± 0.1 mPa·s
mass density ([2]; w2 = 0.5721): 1082.16 ± 3 kg/m3
viscosity ([2]; w2 = 0.5721): 3.8 ± 0.1 mPa·s
mass density ([2]; w2 = 0.6278): 1098.26 ± 3.5 kg/m3
viscosity ([2]; w2 = 0.6278): 5.1 ± 0.2 mPa·s
mass density ([2]; w2 = 0.6729): 1111.27 ± 4 kg/m3
viscosity ([2]; w2 = 0.6729): 6.5 ± 0.2 mPa·s
mass density ([2]; w2 = 0.7159): 1123.69 ± 4.4 kg/m3
viscosity ([2]; w2 = 0.7159): 8.5 ± 0.2 mPa·s
mass density ([2]; w2 = 0.751): 1133.73 ± 4.8 kg/m3
viscosity ([2]; w2 = 0.751): 10.6 ± 0.3 mPa·s
mass density ([2]; w2 = 0.7847): 1143.34 ± 5.2 kg/m3
viscosity ([2]; w2 = 0.7847): 13.3 ± 0.4 mPa·s
mass density ([2]; w2 = 0.8199): 1153.32 ± 5.7 kg/m3
viscosity ([2]; w2 = 0.8199): 16.9 ± 0.5 mPa·s
mass density ([2]; w2 = 0.8756): 1169.16 ± 6.5 kg/m3
viscosity ([2]; w2 = 0.8756): 26.6 ± 0.7 mPa·s
mass density ([2]; w2 = 0.9231): 1183.78 ± 7.2 kg/m3
viscosity ([2]; w2 = 0.9231): 43.7 ± 1.3 mPa·s
mass density ([2]; w2 = 0.9647): 1198.3 ± 7.9 kg/m3
viscosity ([2]; w2 = 0.9647): 69 ± 2.3 mPa·s

COC(C)=O [methyl ethanoate] + CCCCn1cc[n+](C)c1.F[B-](F)(F)F
mass density ([2]; w2 = 0): 915.97 ± 0.55 kg/m3
viscosity ([2]; w2 = 0): 0.4 ± 0.1 mPa·s
mass density ([2]; w2 = 0.1386): 964.5 ± 0.72 kg/m3
viscosity ([2]; w2 = 0.1386): 0.6 ± 0.1 mPa·s
mass density ([2]; w2 = 0.254): 996.04 ± 1 kg/m3
viscosity ([2]; w2 = 0.254): 0.9 ± 0.1 mPa·s
mass density ([2]; w2 = 0.4326): 1045.98 ± 2 kg/m3
viscosity ([2]; w2 = 0.4326): 2 ± 0.1 mPa·s
mass density ([2]; w2 = 0.5703): 1084.58 ± 3 kg/m3
viscosity ([2]; w2 = 0.5703): 3.6 ± 0.1 mPa·s
mass density ([2]; w2 = 0.622): 1098.9 ± 3.5 kg/m3
viscosity ([2]; w2 = 0.622): 4.7 ± 0.1 mPa·s
mass density ([2]; w2 = 0.6699): 1112.24 ± 4 kg/m3
viscosity ([2]; w2 = 0.6699): 6.2 ± 0.2 mPa·s
mass density ([2]; w2 = 0.7149): 1124.8 ± 4.4 kg/m3
viscosity ([2]; w2 = 0.7149): 8.2 ± 0.2 mPa·s
mass density ([2]; w2 = 0.7526): 1136.01 ± 4.9 kg/m3
viscosity ([2]; w2 = 0.7526): 10.2 ± 0.3 mPa·s
mass density ([2]; w2 = 0.7875): 1144.94 ± 5.3 kg/m3
viscosity ([2]; w2 = 0.7875): 13.1 ± 0.4 mPa·s
mass density ([2]; w2 = 0.8204): 1153.95 ± 5.7 kg/m3
viscosity ([2]; w2 = 0.8204): 16.3 ± 0.5 mPa·s
mass density ([2]; w2 = 0.8766): 1169.55 ± 6.5 kg/m3
viscosity ([2]; w2 = 0.8766): 25.8 ± 0.7 mPa·s
mass density ([2]; w2 = 0.9243): 1182.88 ± 7.2 kg/m3
viscosity ([2]; w2 = 0.9243): 40.8 ± 1.2 mPa·s
mass density ([2]; w2 = 0.9648): 1197.7 ± 7.9 kg/m3
viscosity ([2]; w2 = 0.9648): 63.7 ± 1.9 mPa·s

COC=O [methyl methanoate] + CCCCn1cc[n+](C)c1.F[B-](F)(F)F
mass density ([2]; w2 = 0): 964.78 ± 0.45 kg/m3
viscosity ([2]; w2 = 0): 0.3 ± 0.1 mPa·s
mass density ([2]; w2 = 0.1653): 1011.72 ± 0.78 kg/m3
viscosity ([2]; w2 = 0.1653): 0.5 ± 0.1 mPa·s
mass density ([2]; w2 = 0.2974): 1045.55 ± 1.4 kg/m3
viscosity ([2]; w2 = 0.2974): 0.9 ± 0.1 mPa·s
mass density ([2]; w2 = 0.4895): 1091.4 ± 2.5 kg/m3
viscosity ([2]; w2 = 0.4895): 1.9 ± 0.1 mPa·s
mass density ([2]; w2 = 0.6165): 1121.47 ± 3.6 kg/m3
viscosity ([2]; w2 = 0.6165): 3.5 ± 0.1 mPa·s
mass density ([2]; w2 = 0.6592): 1131.2 ± 4 kg/m3
viscosity ([2]; w2 = 0.6592): 4.4 ± 0.1 mPa·s
mass density ([2]; w2 = 0.7145): 1143.64 ± 4.6 kg/m3
viscosity ([2]; w2 = 0.7145): 6.3 ± 0.2 mPa·s
mass density ([2]; w2 = 0.7547): 1152.73 ± 5.1 kg/m3
viscosity ([2]; w2 = 0.7547): 8.2 ± 0.2 mPa·s
mass density ([2]; w2 = 0.7899): 1160.43 ± 5.5 kg/m3
viscosity ([2]; w2 = 0.7899): 10.6 ± 0.3 mPa·s
mass density ([2]; w2 = 0.8204): 1167.19 ± 5.9 kg/m3
viscosity ([2]; w2 = 0.8204): 13.7 ± 0.4 mPa·s
mass density ([2]; w2 = 0.8492): 1173.37 ± 6.2 kg/m3
viscosity ([2]; w2 = 0.8492): 17.12 ± 0.48 mPa·s
mass density ([2]; w2 = 0.8977): 1182.34 ± 6.9 kg/m3
viscosity ([2]; w2 = 0.8977): 28.3 ± 0.8 mPa·s
mass density ([2]; w2 = 0.9376): 1192.78 ± 7.5 kg/m3
viscosity ([2]; w2 = 0.9376): 44.2 ± 1.3 mPa·s
mass density ([2]; w2 = 0.9711): 1202.31 ± 8 kg/m3
viscosity ([2]; w2 = 0.9711): 68.4 ± 2.2 mPa·s
